Experimental data taken from patent publication US20230148005A1, “MACROCYCLIC COMPOUNDS AND USES THEREOF” (THESEUS PHARMACEUTICALS, INC., priority 2020, published 2023).
Where two headings read alike, the source gives them in different places.

What was measured:
EGFR^L858R/T790M/C^797S = EGFR^L858R/T790M/C^797S (Homo sapiens, UniProt P00533, C797S/L858R/T790M); test: in vitro kinase assay (HTRF KinEASE-TK kit), LTC; assay type: biochemical; conditions: kinase inhibition
Text: (§1) Assays using an in vitro kinase assay kit (HTRF KinEASE-TK kit) can be used to study the inhibitory activity of compounds described herein with respect to EGFR mutants such as EGFR^L858R, EGFR^L58R/T790M, and EGFR^L858R/T790M/C^797S.

EGFR^L58R/T790M = EGFR^L58R/T790M (Homo sapiens, UniProt P00533, L858R/T790M); test: in vitro kinase assay (HTRF KinEASE-TK kit), LT; assay type: biochemical; conditions: kinase inhibition
Text: as §1

EGFR^L858R = EGFR^L858R (Homo sapiens, UniProt P00533, L858R); test: in vitro kinase assay (HTRF KinEASE-TK kit), L; assay type: biochemical; conditions: kinase inhibition
Text: as §1

[1] = target: Ba/F3 EGFR-Del19/T790M/C797S (Homo sapiens, UniProt P00533, T790M/C797S, cells depend on it, form not given); test: Ba/F3 viability assay (CellTiter-Glo), DTC; assay type: cell-based; conditions: anti-proliferation, read-out: BaF3 DTC IC50
Text: (§2) Inhibition of cell proliferation can be studied using Ba/F3 viability assays, including the Promega CellTiter-Glo cell viability assay. This assay can be used to study the effect of compounds described herein in the following assays: (1) Ba/F3 Parental; (2) Ba/F3 EGFR-Del19/T790M; (3); Ba/F3 EGFR-Del19/C797S; and (4) Ba/F3 EGFR-Del19/T790M/C797S.

Ba/F3 EGFR-Del19/T790M = Ba/F3 EGFR-Del19/T790M (Homo sapiens, UniProt P00533, T790M, cells depend on it, form not given); test: Ba/F3 viability assay (CellTiter-Glo), DT; assay type: cell-based; conditions: anti-proliferation, read-out: BaF3 DT IC50
Text: as §2

Ba/F3 EGFR-Del19/C797S = Ba/F3 EGFR-Del19/C797S (Homo sapiens, UniProt P00533, C797S, cells depend on it, form not given); test: Ba/F3 viability assay (CellTiter-Glo), DC; assay type: cell-based; conditions: anti-proliferation, read-out: BaF3 DC IC50
Text: as §2

Ba/F3 Parental = test: Ba/F3 viability assay (CellTiter-Glo), parental; assay type: cell-based
Text: as §2

[2] = Mus musculus, BaF3, anti-proliferation

EGFR^L858R, sequence (P00533 25-1210 L858R): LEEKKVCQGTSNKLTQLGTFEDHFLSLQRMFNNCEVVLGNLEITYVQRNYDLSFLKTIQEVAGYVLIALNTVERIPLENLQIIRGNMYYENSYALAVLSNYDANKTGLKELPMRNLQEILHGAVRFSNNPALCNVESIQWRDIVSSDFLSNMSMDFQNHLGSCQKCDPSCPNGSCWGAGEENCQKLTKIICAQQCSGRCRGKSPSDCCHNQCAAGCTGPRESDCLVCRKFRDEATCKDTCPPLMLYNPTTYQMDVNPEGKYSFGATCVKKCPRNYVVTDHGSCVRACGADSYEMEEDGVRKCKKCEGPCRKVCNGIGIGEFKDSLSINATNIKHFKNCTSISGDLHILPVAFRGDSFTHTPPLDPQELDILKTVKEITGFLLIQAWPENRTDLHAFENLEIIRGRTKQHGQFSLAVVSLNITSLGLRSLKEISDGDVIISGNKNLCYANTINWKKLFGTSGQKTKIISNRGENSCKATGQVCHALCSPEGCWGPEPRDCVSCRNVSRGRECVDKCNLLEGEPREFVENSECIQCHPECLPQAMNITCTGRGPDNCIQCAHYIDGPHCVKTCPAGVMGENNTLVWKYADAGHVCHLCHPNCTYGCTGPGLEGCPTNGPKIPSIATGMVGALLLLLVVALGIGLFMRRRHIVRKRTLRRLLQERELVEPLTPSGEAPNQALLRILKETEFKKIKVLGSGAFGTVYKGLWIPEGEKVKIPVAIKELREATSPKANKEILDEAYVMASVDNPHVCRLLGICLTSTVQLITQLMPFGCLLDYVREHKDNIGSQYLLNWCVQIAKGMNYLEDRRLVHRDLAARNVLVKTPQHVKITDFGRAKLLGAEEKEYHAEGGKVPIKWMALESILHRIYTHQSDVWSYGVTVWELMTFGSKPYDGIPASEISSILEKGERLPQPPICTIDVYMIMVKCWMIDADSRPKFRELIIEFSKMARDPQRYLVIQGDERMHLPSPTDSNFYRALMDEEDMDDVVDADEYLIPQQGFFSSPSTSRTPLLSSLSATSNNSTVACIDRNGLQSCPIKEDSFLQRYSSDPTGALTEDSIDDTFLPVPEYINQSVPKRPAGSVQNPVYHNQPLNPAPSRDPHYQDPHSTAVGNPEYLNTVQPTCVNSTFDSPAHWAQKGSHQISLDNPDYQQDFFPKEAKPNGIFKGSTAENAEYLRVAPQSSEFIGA
EGFR^L58R/T790M, sequence (P00533 25-1210 T790M/L858R): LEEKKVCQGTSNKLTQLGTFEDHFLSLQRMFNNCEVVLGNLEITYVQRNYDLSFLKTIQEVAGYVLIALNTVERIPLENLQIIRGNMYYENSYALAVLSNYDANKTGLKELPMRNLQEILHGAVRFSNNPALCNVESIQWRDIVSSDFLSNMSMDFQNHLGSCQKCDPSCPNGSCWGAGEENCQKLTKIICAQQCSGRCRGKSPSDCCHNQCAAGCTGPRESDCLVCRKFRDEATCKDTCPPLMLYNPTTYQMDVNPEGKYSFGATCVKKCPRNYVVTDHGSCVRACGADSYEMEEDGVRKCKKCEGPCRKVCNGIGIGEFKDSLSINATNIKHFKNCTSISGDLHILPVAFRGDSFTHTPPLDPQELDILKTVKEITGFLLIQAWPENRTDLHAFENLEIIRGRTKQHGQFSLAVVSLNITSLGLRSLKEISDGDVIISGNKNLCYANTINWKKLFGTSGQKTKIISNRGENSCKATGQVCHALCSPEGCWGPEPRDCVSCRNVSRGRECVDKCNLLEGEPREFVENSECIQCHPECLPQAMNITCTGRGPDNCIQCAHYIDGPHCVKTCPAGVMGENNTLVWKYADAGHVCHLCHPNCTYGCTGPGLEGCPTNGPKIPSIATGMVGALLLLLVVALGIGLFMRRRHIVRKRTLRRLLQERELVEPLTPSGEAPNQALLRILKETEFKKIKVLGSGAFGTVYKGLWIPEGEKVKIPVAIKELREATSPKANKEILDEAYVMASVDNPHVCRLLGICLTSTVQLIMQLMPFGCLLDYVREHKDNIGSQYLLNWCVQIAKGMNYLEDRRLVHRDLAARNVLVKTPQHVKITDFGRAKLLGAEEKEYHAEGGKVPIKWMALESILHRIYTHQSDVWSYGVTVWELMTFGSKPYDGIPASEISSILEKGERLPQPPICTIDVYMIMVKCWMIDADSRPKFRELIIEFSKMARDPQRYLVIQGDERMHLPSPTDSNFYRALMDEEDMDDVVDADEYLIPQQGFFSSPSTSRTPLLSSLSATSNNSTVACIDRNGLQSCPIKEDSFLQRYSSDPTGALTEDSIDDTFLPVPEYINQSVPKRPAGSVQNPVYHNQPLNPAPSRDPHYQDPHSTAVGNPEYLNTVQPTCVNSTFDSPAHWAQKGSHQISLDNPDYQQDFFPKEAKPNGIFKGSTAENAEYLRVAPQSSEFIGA
Ba/F3 EGFR-Del19/T790M, sequence (P00533 with tags, fused parts or gaps DEL746-750/T790M, form open): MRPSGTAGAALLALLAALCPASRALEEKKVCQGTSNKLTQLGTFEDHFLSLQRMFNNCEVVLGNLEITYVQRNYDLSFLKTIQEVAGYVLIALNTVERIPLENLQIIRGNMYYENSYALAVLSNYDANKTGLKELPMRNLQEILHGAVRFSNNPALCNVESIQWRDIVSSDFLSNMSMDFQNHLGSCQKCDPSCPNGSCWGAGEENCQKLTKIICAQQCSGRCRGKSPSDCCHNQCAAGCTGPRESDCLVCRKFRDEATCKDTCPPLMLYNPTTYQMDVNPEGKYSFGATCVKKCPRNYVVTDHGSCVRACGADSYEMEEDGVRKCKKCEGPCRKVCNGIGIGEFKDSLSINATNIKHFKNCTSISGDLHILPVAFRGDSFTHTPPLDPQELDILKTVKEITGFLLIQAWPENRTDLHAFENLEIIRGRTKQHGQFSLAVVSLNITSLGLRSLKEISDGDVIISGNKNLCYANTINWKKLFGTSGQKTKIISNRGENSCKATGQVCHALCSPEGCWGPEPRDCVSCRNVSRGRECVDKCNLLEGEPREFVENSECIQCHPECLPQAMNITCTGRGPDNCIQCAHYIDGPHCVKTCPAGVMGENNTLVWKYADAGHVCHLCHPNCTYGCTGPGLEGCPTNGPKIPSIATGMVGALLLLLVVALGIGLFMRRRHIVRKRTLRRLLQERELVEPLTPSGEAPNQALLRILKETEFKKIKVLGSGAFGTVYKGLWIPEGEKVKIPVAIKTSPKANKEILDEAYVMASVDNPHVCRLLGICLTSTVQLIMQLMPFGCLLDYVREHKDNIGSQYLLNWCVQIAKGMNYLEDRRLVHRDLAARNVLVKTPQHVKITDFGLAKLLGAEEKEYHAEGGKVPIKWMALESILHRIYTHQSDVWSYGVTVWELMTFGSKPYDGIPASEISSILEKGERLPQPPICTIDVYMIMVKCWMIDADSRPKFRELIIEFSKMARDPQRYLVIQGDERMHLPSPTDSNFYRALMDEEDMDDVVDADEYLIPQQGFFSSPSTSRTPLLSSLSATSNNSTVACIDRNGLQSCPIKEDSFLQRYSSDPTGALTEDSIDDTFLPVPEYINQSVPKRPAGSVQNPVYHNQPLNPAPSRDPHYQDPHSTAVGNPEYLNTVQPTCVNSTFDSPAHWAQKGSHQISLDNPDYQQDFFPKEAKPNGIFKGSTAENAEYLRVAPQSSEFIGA
EGFR^L858R/T790M/C^797S, sequence (P00533 25-1210 T790M/C797S/L858R): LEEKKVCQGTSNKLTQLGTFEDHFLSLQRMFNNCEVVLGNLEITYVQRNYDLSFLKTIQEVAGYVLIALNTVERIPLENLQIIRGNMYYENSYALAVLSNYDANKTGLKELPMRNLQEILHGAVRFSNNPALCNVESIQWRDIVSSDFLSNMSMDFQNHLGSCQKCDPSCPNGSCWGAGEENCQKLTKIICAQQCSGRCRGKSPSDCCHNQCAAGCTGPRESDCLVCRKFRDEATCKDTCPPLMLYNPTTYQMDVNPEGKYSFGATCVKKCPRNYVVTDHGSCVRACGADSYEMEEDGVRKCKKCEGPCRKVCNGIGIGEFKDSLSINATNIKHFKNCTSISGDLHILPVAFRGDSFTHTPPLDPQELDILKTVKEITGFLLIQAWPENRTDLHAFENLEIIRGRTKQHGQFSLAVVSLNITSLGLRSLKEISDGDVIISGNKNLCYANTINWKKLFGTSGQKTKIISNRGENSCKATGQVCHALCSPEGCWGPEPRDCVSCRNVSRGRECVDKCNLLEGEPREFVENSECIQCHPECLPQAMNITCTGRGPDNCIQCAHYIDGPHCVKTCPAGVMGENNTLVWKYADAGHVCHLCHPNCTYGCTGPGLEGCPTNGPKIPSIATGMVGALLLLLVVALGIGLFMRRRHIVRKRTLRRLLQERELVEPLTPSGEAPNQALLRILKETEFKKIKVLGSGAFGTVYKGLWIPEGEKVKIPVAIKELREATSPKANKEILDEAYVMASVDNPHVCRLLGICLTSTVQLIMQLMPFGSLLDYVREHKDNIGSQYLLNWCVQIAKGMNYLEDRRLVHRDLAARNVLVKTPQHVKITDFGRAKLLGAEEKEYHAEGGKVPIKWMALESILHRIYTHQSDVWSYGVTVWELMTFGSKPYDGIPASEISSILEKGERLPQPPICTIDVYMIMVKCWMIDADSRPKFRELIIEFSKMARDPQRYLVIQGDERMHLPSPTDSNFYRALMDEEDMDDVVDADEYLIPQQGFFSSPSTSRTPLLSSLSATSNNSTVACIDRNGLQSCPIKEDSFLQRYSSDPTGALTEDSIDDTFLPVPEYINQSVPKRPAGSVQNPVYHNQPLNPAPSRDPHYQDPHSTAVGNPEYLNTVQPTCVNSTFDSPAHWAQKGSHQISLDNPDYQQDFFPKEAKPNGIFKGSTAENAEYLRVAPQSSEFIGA

Structure (SMILES)	IC50 (EGFR^L858R/T790M/C^797S) [nM]	IC50 (EGFR^L58R/T790M) [nM]	IC50 (EGFR^L858R) [nM]	GI50 [1] [nM]	GI50 (Ba/F3 EGFR-Del19/T790M) [nM]	GI50 (Ba/F3 EGFR-Del19/C797S) [nM]	IC50 (Ba/F3 Parental; [2]) [nM]	IC50 (Ba/F3 Parental; anti-proliferation, read-out: BaF3 parental IC50) [nM]
CN1CCN(CC2CCN(c3nn4c5cc(ncc35)Nc3ccnc(n3)-c3cnn(C)c3OCCC4)C2)CC1 (centres unmarked) [(57)]	< 10	< 10	10 to 100	10 to 100	10 to 100	10 to 100	100 to 1000	
CC1CCCCOc2c(cnn2C)-c2nccc(n2)Nc2cc3c(cn2)c(N2CCC2)nn31 (centres unmarked) [(58)]	< 10	< 10	10 to 100	10 to 100	10 to 100	10 to 100	≥ 1000	
COC(=O)C1CCCN1c1nn2c3cc(ncc13)Nc1ccnc(n1)-c1cnn(C)c1OCCC2 (centres unmarked) [(61)]	10 to 100	< 10	100 to 1000	100 to 1000	100 to 1000	100 to 1000	≥ 1000	
Cn1ncc2c1OCCCn1nc(N3CCCC3CO)c3cnc(cc31)Nc1ccnc-2n1 (centres unmarked) [(62)]	< 10	< 10	100 to 1000	100 to 1000	100 to 1000	100 to 1000	100 to 1000	
CC1CCOc2c(cnn2C)-c2nccc(n2)Nc2cc3c(cn2)c(-c2ccc(CN4CCN(C)CC4)o2)nn31 (centres unmarked) [(63), 11,16-dimethyl-19-[5-[(4-methylpiperazin-1-yl)methyl]-2-furyl]-13-oxa-2,6,10,11,17,18,22,25-octazapentacyclo[15.5.2.13,7.08,12.020,24]pentacosa-1(22),3,5,7(25),8(12),9,18,20,23-nonaene]	< 10	< 10	< 10	10 to 100	10 to 100	< 10	100 to 1000	
CC1CCOc2c(cnn2C)-c2nccc(n2)Nc2cc3c(cn2)c(-c2cnn(C4CC4)c2)nn31 (centres unmarked) [(64)]	< 10	< 10	10 to 100	10 to 100	10 to 100	10 to 100	100 to 1000	
Cn1ncc2c1OCCCn1nc(N3CCCC3C(=O)O)c3cnc(cc31)Nc1ccnc-2n1 (centres unmarked) [(65)]	< 10	< 10	100 to 1000	100 to 1000	100 to 1000	100 to 1000	100 to 1000	
CN1CCN(C(=O)C2CCN(c3nn4c5cc(ncc35)Nc3ccnc(n3)-c3cnn(C)c3OCCC4)C2)CC1 (centres unmarked) [(66)]	< 10	< 10	10 to 100	100 to 1000	100 to 1000	100 to 1000	≥ 1000	
CC1CCOc2c(cnn2C)-c2nccc(n2)Nc2cc3c(cn2)c(-c2ccn(C)n2)nn31 (centres unmarked) [(69)]	< 10	< 10	10 to 100	10 to 100	10 to 100	10 to 100	≥ 1000	
C[C@H]1CCOc2c(cnn2C)-c2nccc(n2)Nc2cc3c(cn2)c(N2CCC2)nn31 [(70)]	< 10	< 10	< 10	10 to 100	< 10	10 to 100		100 to 1000
CC1CCCOc2c(cnn2C)-c2nccc(n2)Nc2cc3c(cn2)c(N2CCCC2)nn31 (centres unmarked) [(71)]	< 10	< 10	< 10	10 to 100	10 to 100	10 to 100	100 to 1000	
CC(C)n1ncc2c1OCCCC(C)n1nc(N3CCC3)c3cnc(cc31)Nc1ccnc-2n1 (centres unmarked) [(74)]	< 10	< 10	100 to 1000	100 to 1000	100 to 1000	100 to 1000	≥ 1000	
CC1CCCOc2c(cnn2C)-c2nccc(n2)Nc2cc3c(cn2)c(-c2ccnn2C)nn31 (centres unmarked) [(75)]	< 10	< 10	10 to 100	10 to 100	10 to 100	10 to 100	100 to 1000	
CCn1cc(-c2nn3c4cc(ncc24)Nc2ccnc(n2)-c2cnn(C)c2OCCC3C)cc1CN1CCN(C)CC1 (centres unmarked) [(76)]	< 10	< 10	< 10	< 10	< 10	< 10	10 to 100	
